How the values were obtained:
IKKα/β = biological target: T1, IKKα/β (Homo sapiens, UniProt O14920+O15111); assay: Effect of BAY11-7082 on expression of NF-κB-related survival genes, Western-blot, control and GRP94-overexpressing cells; type: cell-based; design: dose or concentration left out as unconfirmed
T1 construct: were monitored using GRP94-overexpressing and control cell lines; endogenous in cells; host or cells: Huh-7 cells stably carrying pCDNA3.1 (control) or pCDNA3.1-GRP94
Experimental: Western-blot analysis—Proteins were resolved by 8% or 13.5% SDS-PAGE and transferred to nitrocellulose membranes (Amersham). The membranes were blocked overnight with 5% skimmed milk in Tris-buffered saline (TBS) [20 mM Tris-HCl (pH 7.5), 150 mM NaCl, 0.5% Tween-20] and then incubated with monoclonal antibodies against actin (1:5000), GRP94 (1:1000), Hsp90 (1:1000), TRAF2 (1:500), XIAP (1:1000), survivin (1:500), glyceraldehyde-3-phosphate dehydrogenase (GAPDH) (1:5000) and IKKα/β for 5 hours. A monoclonal anti-human actin antibody was used as a control. […]
The inventors tried to determine the stage of the signaling cascade at which NF-κB is activated by GRP94. […] The effects of BAY11-7082, a specific inhibitor of IKKα/β, on the expression of NF-κB-related gene products were monitored using GRP94-overexpressing and control cell lines, and the obtained results are shown in FIG. 4B. […] Effect of abrogation of IKKα/β activity by BAY11-7082 on the expression of NF-κB-related survival genes was monitored by Western-blot analysis; lanes 2 and 4 show results with and lanes 1 and 3 show results without treatment of the drug […] for 4 hrs on control (lanes 1 and 2) and GRP94-overexpressing (lanes 3 and 4) cells.

IκBα = assay: Time-course analysis of IκBα levels after TNF-α treatment, Western-blot, Huh-7 cells with or without HCV replicons; type: cell-based; conditions: TNF-α 10 ng/ml
Experimental: Western-blot analysis—Proteins were resolved by 8% or 13.5% SDS-PAGE and transferred to nitrocellulose membranes (Amersham). The membranes were blocked overnight with 5% skimmed milk in Tris-buffered saline (TBS) [20 mM Tris-HCl (pH 7.5), 150 mM NaCl, 0.5% Tween-20] and then incubated with monoclonal antibodies against actin (1:5000), GRP94 (1:1000), Hsp90 (1:1000), TRAF2 (1:500), XIAP (1:1000), survivin (1:500), glyceraldehyde-3-phosphate dehydrogenase (GAPDH) (1:5000) and IKKα/β for 5 hours. A monoclonal anti-human actin antibody was used as a control. Horseradish-peroxidase-conjugated anti-mouse, anti-goat or anti-rabbit immunoglobulin Gs (IgGs) were used as secondary antibodies (1:5000), and bands were visualized by enhanced chemiluminescence (ECL) according to the manufacturer's instructions (Amersham).
The protein level of IκBα in control Huh-7 cells, Huh-7 cells containing replicons FK-E1 (UAA), and FK-E2(UAA) were measured by Western-blot assays with time; this is because the phosphorylation-dependent degradation of IκBs is an essential step for NF-κB activation after TNF-α treatment. […] Within 5 minutes of TNF-α treatment, IκBα proteins were not detected in the control Huh-7 cells (FIG. 1C). In Huh-7 cells containing the replicon FK-E1(UAA) that expresses NS3-5B, core and E1 proteins, the degradation of IκBα was delayed by up to 10 minutes after treatment with TNF-α (FIG. 1C).

NF-κB = NF-κB reporter assay (firefly luciferase under NF-κB response element) in 293T cells; type: cell-based; conditions: 10 ng TNF-α for 12 hours, vs mock-treated
Experimental: (§1) Luciferase assay—Luciferase assays were performed using a luciferase assay kit (Promega), according to the manufacturer's instructions. The luciferase activities in the cells were normalized by the protein concentrations, as determined by the Bradford assay.
The activation of NF-κB by overproduction of GRP94 was investigated by measuring the activity of a reporter gene (firefly luciferase) under the control of the […] response element (FIG. 4A). […] 293T cells were transfected with pNF-κB-Luc, which encodes the firefly luciferase gene under the control of a NF-κB response element, with control vector plasmid (pCDNA3.1) (lane 3) or with the plasmid pCDNA3.1-GRP94, which produces. GRP94 (lane 4). Control plasmid pRLCMV-Luc (Promega) was also cotransfected to normalize transfection efficiency. After incubation of the cells for 48 hours, cells were further incubated in serum-free medium for 6 hours, mock-treated (lane 1), or treated with 10 ng TNF-α for 12 hours (lane 2), before luciferase activities were measured. Three independent experiments were performed and the relative values (TNF-α-treated vs mock-treated, and GRP94-overexpressed vs mock-expressed) are shown.

[1] = test system: control, GRP94-overexpressing and E2-expressing cells; assay: TRAIL-induced apoptosis monitored by cleavage of PARP (Western-blot) in control, GRP94-overexpressing and E2-expressing cells; type: cell-based; conditions: 200 ng/ml TRAIL for 2 hours
From the text: The role of GRP94 in inhibition of apoptosis during HCV infection was investigated using a siRNA against GRP94 and a control siRNA, the GRP94-overexpressing, and the E2-expressing cell lines (FIG. 5). The strong apoptosis inducer TRAIL was used to mimic the physiological conditions of a virus infection that induces TRAIL expression. Cleavage of PARP, which is a substrate of activated caspase-3/7, was used to monitor the process of apoptosis. The obtained results were shown in FIG. 5, wherein control (lanes 1-4), GRP94-overexpressing (lanes 5-8), and E2-expressing (lanes 9-12) cells were mock-treated (lanes 1, 3, 5, 7, 9 and 11) or treated with 200 ng/ml TRAIL (lanes 2, 4, 6, 8, 10 and 12) for 2 hours after treatment with a control siRNA (lanes 3, 4, 7, 8, 11 and 12) or a siRNA against GRP94 (lanes 1, 2, 5, 6, 9 and 10). The levels of uncleaved PARP, GRP94, HCV E2 and actin were monitored by Western-blot analysis.

HCV strain JFH 5a-Rluc = assay: HCV infectivity assessed by luciferase activity of JFH 5a-Rluc in Huh-7 cells; type: cell-based, hepatitis C virus; conditions: siRNA 48 hours before infection, TRAIL 18 hours after 24 hours infection
Experimental: as §1
To confirm that the anti-apoptotic activity of E2 is induced by GRP94 and NF-κB-related gene products in HCV-infected cells, the levels of GRP94, XIAP, TRAF2, FLIP and Bcl-xL were monitored using a HCV-infection system. The infectious JFH1 strain of HCV (Wakita T, Pietschmann T, Kato T, Date T, Miyamoto M, Zhao Z, Murthy K, et al. Production of infectious hepatitis C virus in tissue culture from a cloned viral genome. Nat Med 2005; 11:791-796) and a JFH1 derivative known as JFH5a-Rluc with a reporter gene (Renilla luciferase) in the NS5A of HCV (FIG. 6A) that is suitable for quantification of HCV infection (Kim C S, Jung J H, Wakita T, Yoon S K, Jang S K. Monitoring the Antiviral Effect of Alpha Interferon on Individual Cells. J. Virol. 2007; 81:8814-8820) were used. […]
Huh-7 cells were transfected with a control siRNA (lanes 1, 2, 5 and 6) and a siRNA against GRP94 (lanes 3, 4, 7 and 8) and incubated for 48 hours. […] The levels of PARP, GRP94 and actin were monitored by Western-blot analysis. The HCV infectivity levels were assessed by measuring luciferase activities. […]

HCV-infected Huh-7 cells = assay: TRAIL-induced PARP cleavage in mock-infected and HCV (JFH 5a-Rluc)-infected Huh-7 cells; type: cell-based; conditions: TRAIL for 18 hours
Experimental: Huh-7 cells were transfected with a control siRNA (lanes 1, 2, 5 and 6) and a siRNA against GRP94 (lanes 3, 4, 7 and 8) and incubated for 48 hours. The siRNA-treated cells were mock-infected (lanes 1-4) or infected with HCV (JFH 5a-Rluc) (lanes 5-8) and incubated for 24 hours. After infection, the cells were mock-treated (lanes 1, 3, 5 and 7) or treated with TRAIL (lanes 2, 4, 6 and 8) for 18 hours. These cells were used to monitor protein levels (upper panel) and virus infection (lower panel). The levels of PARP, GRP94 and actin were monitored by Western-blot analysis. The HCV infectivity levels were assessed by measuring luciferase activities. Experiments were performed six times with triplicate samples each, and mean and standard deviation values of the experiments are shown as columns and lines, respectively.

T1 sequence (O15111 whole entry): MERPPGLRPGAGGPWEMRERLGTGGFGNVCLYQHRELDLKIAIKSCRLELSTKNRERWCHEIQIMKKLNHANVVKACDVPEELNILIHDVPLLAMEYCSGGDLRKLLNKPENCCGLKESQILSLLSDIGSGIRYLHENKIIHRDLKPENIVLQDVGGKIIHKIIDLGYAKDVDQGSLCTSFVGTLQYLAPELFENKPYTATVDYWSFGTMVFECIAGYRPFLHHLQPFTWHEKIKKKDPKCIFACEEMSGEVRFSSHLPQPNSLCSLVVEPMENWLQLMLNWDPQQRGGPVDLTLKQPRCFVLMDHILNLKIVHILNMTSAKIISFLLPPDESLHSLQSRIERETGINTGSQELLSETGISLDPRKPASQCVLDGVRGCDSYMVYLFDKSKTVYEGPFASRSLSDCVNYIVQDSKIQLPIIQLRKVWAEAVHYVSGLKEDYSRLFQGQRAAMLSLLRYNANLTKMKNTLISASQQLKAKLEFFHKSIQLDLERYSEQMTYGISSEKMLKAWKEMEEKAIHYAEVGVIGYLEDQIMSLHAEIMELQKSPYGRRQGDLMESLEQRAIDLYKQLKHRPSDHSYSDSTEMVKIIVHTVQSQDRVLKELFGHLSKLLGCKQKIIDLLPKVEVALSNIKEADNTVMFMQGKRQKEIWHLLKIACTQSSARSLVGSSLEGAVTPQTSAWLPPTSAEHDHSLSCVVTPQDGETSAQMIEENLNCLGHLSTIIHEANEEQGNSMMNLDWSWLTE
T1 sequence (O14920 whole entry): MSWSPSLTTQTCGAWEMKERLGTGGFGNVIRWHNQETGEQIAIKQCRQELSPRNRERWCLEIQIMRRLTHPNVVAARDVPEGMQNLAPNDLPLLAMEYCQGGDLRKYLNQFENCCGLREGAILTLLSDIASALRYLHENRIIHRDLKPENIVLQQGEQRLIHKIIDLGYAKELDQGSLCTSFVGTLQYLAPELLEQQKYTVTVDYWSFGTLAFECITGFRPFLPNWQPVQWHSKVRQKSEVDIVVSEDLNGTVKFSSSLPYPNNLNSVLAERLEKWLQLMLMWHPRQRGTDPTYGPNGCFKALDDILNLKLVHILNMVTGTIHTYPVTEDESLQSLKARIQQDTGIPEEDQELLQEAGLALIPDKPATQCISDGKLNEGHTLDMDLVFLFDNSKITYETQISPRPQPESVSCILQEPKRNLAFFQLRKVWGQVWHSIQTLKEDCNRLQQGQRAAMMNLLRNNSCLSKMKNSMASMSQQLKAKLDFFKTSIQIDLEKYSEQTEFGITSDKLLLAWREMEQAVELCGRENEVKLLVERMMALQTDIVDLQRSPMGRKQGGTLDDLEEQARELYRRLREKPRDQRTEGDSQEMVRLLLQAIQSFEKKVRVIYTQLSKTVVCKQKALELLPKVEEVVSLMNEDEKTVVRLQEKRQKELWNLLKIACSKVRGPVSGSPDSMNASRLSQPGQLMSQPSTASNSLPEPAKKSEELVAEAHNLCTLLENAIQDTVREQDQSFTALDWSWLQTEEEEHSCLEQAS
T1 sequence (Q9Y6K9 whole entry partner): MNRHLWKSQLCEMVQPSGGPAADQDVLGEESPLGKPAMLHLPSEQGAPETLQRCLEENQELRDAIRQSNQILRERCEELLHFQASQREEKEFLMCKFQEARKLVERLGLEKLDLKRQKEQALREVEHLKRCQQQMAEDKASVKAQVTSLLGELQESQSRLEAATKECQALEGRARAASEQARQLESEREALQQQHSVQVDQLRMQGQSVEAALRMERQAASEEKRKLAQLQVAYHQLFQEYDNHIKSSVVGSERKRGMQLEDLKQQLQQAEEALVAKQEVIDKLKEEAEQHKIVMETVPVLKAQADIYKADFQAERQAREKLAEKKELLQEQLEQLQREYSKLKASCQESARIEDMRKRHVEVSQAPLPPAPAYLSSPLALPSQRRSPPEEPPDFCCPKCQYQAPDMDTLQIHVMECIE

Molecule: Cc1ccc(S(=O)(=O)/C=C/C#N)cc1 [BAY11-7082]
- levels of GRP94 protein (IKKα/β): reduced
- levels of XIAP, TRAF2, survivin, and IKKα/β (IKKα/β; GRP94-expressing and control cells): markedly reduced

Molecule: tumor necrosis factor (TNF)-α [TNF-α]
- time after TNF-α treatment at which residual IκBα proteins were not detected (IκBα; FK-E2(UAA)-containing Huh-7 cells): ≤ 5 min
- delay of degradation of IκBα after treatment with TNF-α (IκBα; Huh-7 cells containing replicon FK-E1(UAA)): up to 10 minutes
- time after TNF-α treatment at which IκBα proteins were not detected (IκBα; control Huh-7 cells): ≤ 5 min
- increase in NF-κB reporter activity (NF-κB): about 10 fold

B1: tumor necrosis-related apoptosis-inducing ligand (protein, UniProt P50591 1-281, looked up)
Tumor necrosis factor ligand …: MAMMEVQGGPSLGQTCVLIVIFTVLLQSLCVAVTYVYFTNELKQMQDKYSKSGIACFLKEDDSYWDPNDEESMNSPCWQVKWQLRQLVRKMILRTSEETISTVQEKQQNISPLVRERGPQRVAAHITGTRGRSNTLSSPNSKNEKALGRKINSWESSRSGHSFLSNLHLRNGELVIHEKGFYYIYSQTYFRFQEEIKENTKNDKQMVQYIYKYTSYPDPILLMKSARNSCWSKDAEYGLYSIYQGGIFELKENDRIFVSVTNEHLIDMDHEASFFGAFLVG
- cleavage of PARP ([1]; GRP94-overexpressing and HCV-E2-expressing cells): blocked
- cleavage of PARP ([1]; control cells, with control siRNA or GRP94 siRNA): observed
- reduction of infectivity of HCV (HCV strain JFH 5a-Rluc): about 20%
- levels of PARP cleavage (HCV-infected Huh-7 cells; HCV-infected Huh-7 cells): almost no reductions
- cleavage of PARP (HCV-infected Huh-7 cells; mock-infected Huh-7 cells): observed

Reference: patent publication US20100273144A1, “NOVEL USE OF GRP 94 IN VIRUS INFECTION” (priority 2008, published 2010)
